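Protocol summary: plate cells (96-well), add compound at 5 concentrations, incubate 48 h, interpolate endpoints linearly. GI50: concentration for 50% inhibition of growth.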 The source made the active and inactive calls. Rule as the data show it: active = GI50 up to about 1.1 µM and inactive = higher.
Assays:
Assay in all cases: inhibition of tumour cell growth, NCI panel, 48 h
A549 = system: A549
EKVX = system: EKVX
HCT-116 = system: HCT-116
HOP-62 = system: HOP-62
KM12 = system: KM12
MOLT-4 = system: MOLT-4
NCI-H23 = system: NCI-H23
NCI-H460 = system: NCI-H460
NCI-H522 = system: NCI-H522
OVCAR-4 = system: OVCAR-4
OVCAR-5 = system: OVCAR-5
SF-268 = system: SF-268
SF-295 = system: SF-295
SK-OV-3 = system: SK-OV-3
SN12C = system: SN12C
U-251 = system: U-251
UACC-257 = system: UACC-257
UACC-62 = system: UACC-62
UO-31 = system: UO-31
HCC 2998 = system: HCC 2998

Measured: GI50

Oc1ccc(Cl)cc1C1=Nn2c(COc3ccc4c(c3)CCCC4)nnc2SC1
inactive: A549 25.5 µM | EKVX 15.9 µM | HCT-116 6.56 µM | HOP-62 13.2 µM | KM12 14.6 µM | MOLT-4 11 µM | NCI-H23 11.4 µM | NCI-H460 14 µM | NCI-H522 6.84 µM | OVCAR-4 1.44 µM | OVCAR-5 17.2 µM | SF-268 16.4 µM | SF-295 14 µM | SK-OV-3 16.9 µM | SN12C 6.28 µM | U-251 15.3 µM | UACC-257 16.3 µM | UACC-62 12.4 µM | UO-31 10.5 µM

CCOC(=O)C1C(c2cc(OC)c(O)c(OC)c2)c2cc3c(cc2OC1(C)O)OCO3 (configuration not stated)
inactive: A549 45.6 µM | EKVX > 100 µM | HCT-116 47.3 µM | HOP-62 14.3 µM | MOLT-4 35 µM | NCI-H23 66.5 µM | NCI-H460 48.2 µM | OVCAR-4 57.8 µM | SF-295 35.2 µM | SK-OV-3 > 100 µM | SN12C 88.5 µM | U-251 78.9 µM | UACC-257 61.9 µM | UACC-62 43.9 µM | UO-31 41.8 µM

Cc1cc2cccc(Cl)c2nc1C(=O)c1ccccc1
inactive: A549 > 100 µM | HCC 2998 > 100 µM | HCT-116 > 100 µM | HOP-62 44.1 µM | KM12 > 100 µM | NCI-H23 > 100 µM | NCI-H522 41.2 µM | OVCAR-4 86.3 µM | OVCAR-5 > 100 µM | SF-268 > 100 µM | SF-295 18.9 µM | SN12C > 100 µM | U-251 > 100 µM | UACC-257 18.2 µM | UACC-62 > 100 µM | UO-31 > 100 µM

COc1ccc(C2C(=O)C(Cl)N2Nc2nc(C)cc(O)n2)cc1OC (configuration not stated)
inactive: A549 59.7 µM | EKVX 56.8 µM | HCC 2998 42.6 µM | HCT-116 36.3 µM | HOP-62 23.6 µM | KM12 39.6 µM | MOLT-4 18.7 µM | NCI-H23 25.3 µM | NCI-H460 26.8 µM | OVCAR-4 30.8 µM | OVCAR-5 > 100 µM | SF-268 17.9 µM | SN12C 21.7 µM | U-251 26.2 µM | UACC-257 40.6 µM | UACC-62 28.4 µM | UO-31 29.9 µM

CCOC(=O)c1c(NC(=S)NCc2ccccc2)sc2c1CCN(C)C2
inactive: A549 53.6 µM | EKVX 78 µM | HCT-116 67.3 µM | HOP-62 > 100 µM | KM12 24.4 µM | MOLT-4 20.4 µM | NCI-H23 65.5 µM | NCI-H460 40.8 µM | OVCAR-5 > 100 µM | SF-268 64 µM | SF-295 57.3 µM | SN12C 42.7 µM | UACC-257 > 100 µM | UACC-62 > 100 µM | UO-31 64.4 µM
